Reference: US8410152B2 (Max-Planck-Gesellschaft zur Forderung der Wissenschaften e. …, priority 2006, dated 2013)

Columns and labels:
tau construct K19 = tau construct K19 (Homo sapiens, UniProt P10636); assay: Thioflavine S (ThS) assay for aggregation of tau; assay type: biochemical; conditions: 10 μM tau construct K19, 2.5 μM heparin, ThS fluorescence; for DC50: read-out: DC50; for IC50: over night at 37° C., read-out: ID50 (the source's name)
Description: Thioflavine S (ThS) Assay for aggregation of tau: 10 μM of the tau construct K19 were incubated with compounds in a concentration range from 1 nM up to 200 μM in the presence of 2.5 μM heparin in 50 mM NH4Ac buffer over night at 37° C. After addition of 20 μM ThS the signal was measured at 521 nm (emission) at an excitation wavelength of 440 nm. The results of this assay are presented in the IC50 column and DC50 column of Table 1 below.

uninduced N2A cells = assay type: cell-based; conditions: cell death as percent of LDH released into medium vs total LDH, compound 10 μM
Description: Neurotoxicity assay: Neurotoxicity was assessed using an LDH (lactate dehydrogenase) assay kit (Roche, Mannheim, Germany) according to the manufacturer's specifications. In the viability assay the aggregation inhibitor compound was added at a final concentration of 10 μM to uninduced N2A cells. The activity of LDH was measured spectrophotometrically at 492 nm. Cell death was calculated as percent of LDH released into medium, compared to total LDH obtained after total cell lysis.

Chain of tau construct K19 (P10636 with tags, fused parts or gaps isoform P10636-2 limits assumed): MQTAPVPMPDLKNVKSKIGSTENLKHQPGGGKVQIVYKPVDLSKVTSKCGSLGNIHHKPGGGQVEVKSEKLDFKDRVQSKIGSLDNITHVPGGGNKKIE

Row | SMILES | DC50 (tau construct K19) [µM] | IC50 (tau construct K19) [µM] | LDH (uninduced N2A cells) [%]
1 | O=C(NNc1nc(-c2ccccc2)cs1)c1ccc(Cl)cc1 | > 200 | > 200 | 34.3
2 | O=C(NNc1nc(-c2ccccc2)cs1)c1cccnc1 [Comp. 1, N′-(4-Phenylthiazol-2-yl)nicotinohydrazide] | 1.7 | 17 | 56.8
3 | O=C(NNc1nc(-c2cc3ccccc3oc2=O)cs1)c1cccnc1 [Comp. 2, N′-(4-(2-Oxo-2H-chromen-3-yl)thiazol-2-yl)nicotinohydrazide] | 11.1 | 23.2 | 15.4
4 | O=C(NNc1nc(-c2ccc(Br)cc2)cs1)c1ccc2ccccc2c1 [Comp. 3, N′-(4-(4-Bromophenyl)thiazol-2-yl)-2-naphthohydrazide] | 169 | > 200 | 4.2
5 | O=C(NNc1nc(-c2cc3ccccc3oc2=O)cs1)c1ccc2ccccc2c1 [Comp. 4, N′-(4-(2-Oxo-2H-chromen-3-yl)thiazol-2-yl)-2-naphthohydrazide] | 88 | > 200 | 15.7
6 | O=C(NNc1nc(-c2cc3ccccc3oc2=O)cs1)c1ccc(F)cc1 [Comp. 5, 4-Fluoro-N′-(4-(2-oxo-2H-chromen-3-yl)thiazol-2-yl)benzohydrazide] | > 200 | 47.2 | 8.6
7 | O=C(NNc1nc(-c2ccc([N+](=O)[O-])cc2)cs1)Nc1ccccc1 [Comp. 6] | 33.5 | 10.8 | 2.1
8 | O=C(NNc1nc(-c2ccc([N+](=O)[O-])cc2)cs1)c1cccnc1 [Comp. 11, N′-[4-(4-nitrophenyl)-1,3-thiazol-2-yl]nicotinohydrazide] | 0.7 | 3.1 | 12.9
9 | O=C(NNc1nc(-c2ccc(Br)cc2)cs1)c1cccnc1 [Comp. 12, N′-[4-(4-bromophenyl)-1,3-thiazol-2-yl]nicotinohydrazide] | 0.5 | 3.3 | 13.6
10 | [N-]=[N+]=Nc1ccc(-c2csc(NNC(=O)c3ccc(F)cc3)n2)cc1 [Comp. 14, N′-[4-(4-azidophenyl)-1,3-thiazol-2-yl]-4-fluorobenzohydrazide] | 1.3 | 4.7 | 42.5
11 | O=C(NNc1nc(-c2ccc(N3CCCC3)cc2)cs1)c1ccc(F)cc1 [Comp. 15, 4-fluoro-N′-[4-(4-pyrrolidin-1-ylphenyl)-1,3-thiazol-2-yl]benzohydrazide] | 0.7 | 4.9 | −1.1
12 | O=C(NNc1nc(-c2ccc(N3CCCC3)cc2)cs1)c1ccc2ccccc2c1 [Comp. 16, N′-[4-(4-pyrrolidin-1-ylphenyl)-1,3-thiazol-2-yl]-2-naphthohydrazide] | 1.5 | 5.8 | 15.3
13 | O=C(NNc1nc(-c2ccc([N+](=O)[O-])cc2)cs1)c1ccco1 [Comp. 17, N′-[4-(4-nitrophenyl)-1,3-thiazol-2-yl]-2-furohydrazide] | 0.8 | 6.3 | 4.9
14 | O=C(NNc1nc(-c2ccc([N+](=O)[O-])cc2)cs1)c1ccc(F)cc1 [Comp. 18, 4-fluoro-N′-[4-(4-nitrophenyl)-1,3-thiazol-2-yl]benzohydrazide] | 0.9 | 6.9 | 46.9
15 | Cc1sc(NNC(=O)c2ccc(Cl)cc2)nc1-c1cccc([N+](=O)[O-])c1 [Comp. 19, 4-chloro-N′-[5-methyl-4-(3-nitrophenyl)-1,3-thiazol-2-yl]benzohydrazide] | 10.8 | 7.7 | 47.4
16 | O=C(NNc1nc(-c2ccc([N+](=O)[O-])cc2)cs1)c1ccc2ccccc2c1 [Comp. 20, N′-(4-(4-Nitrophenyl)thiazol-2-yl)-2-naphthohydrazide] | 0.4 | 13.6 | 18.7
17 | O=C(NNc1nc(-c2ccc(Br)cc2)cs1)c1ccncc1 [Comp. 21, N′-[4-(4-bromophenyl)-1,3-thiazol-2-yl]isonicotinohydrazide] | 20.2 | 18 | 1.5
18 | O=C(NNc1nc(-c2ccccc2)cs1)c1cccs1 [Comp. 22, N′-(4-phenyl-1,3-thiazol-2-yl)thiophene-2-carbohydrazide] | 35.5 | 25.3 | 14.8
19 | COc1cccc(-c2csc(NNC(=O)c3cccs3)n2)c1 [Comp. 23, N′-[4-(3-methoxyphenyl)-1,3-thiazol-2-yl]thiophene-2-carbohydrazide] | > 200 | 28.3 | 25.3

Row | SMILES | DC50 (tau construct K19) [µM] | IC50 (tau construct K19) [µM] | LDH (uninduced N2A cells) [%]
20 | O=C(NNc1nc(-c2ccccc2)cs1)c1ccc(F)cc1 [Comp. 24, 4-fluoro-N′-(4-phenyl-1,3-thiazol-2-yl)benzohydrazide] | 16.5 | 33.6 | 5.5
21 | O=C(NNc1nc(-c2cccc([N+](=O)[O-])c2)cs1)c1ccccc1Cl [Comp. 25, 2-chloro-N′-[4-(3-nitrophenyl)-1,3-thiazol-2-yl]benzohydrazide] | > 200 | 35.5 | 43.0
22 | O=C(NNc1nc(-c2cc3ccccc3o2)cs1)c1ccc(Cl)cc1 [Comp. 26, N′-[4-(1-benzofuran-2-yl)-1,3-thiazol-2-yl]-4-chlorobenzohydrazide] | 21.3 | 47.2 | −0.6
23 | COc1cccc(-c2csc(NNC(=O)c3ccc(Cl)cc3)n2)c1 [Comp. 27, 4-chloro-N′-[4-(3-methoxyphenyl)-1,3-thiazol-2-yl]benzohydrazide] | > 200 | 59.2 | 42.1
24 | O=C(NNc1nc(-c2ccc(Br)cc2)cs1)c1ccco1 [Comp. 28, N′-[4-(4-bromophenyl)-1,3-thiazol-2-yl]-2-furohydrazide] | 2 | 60.9 | 3.8
25 | O=C(NNc1nc(-c2cccs2)cs1)c1ccc(Cl)cc1 [Comp. 29, 4-chloro-N′-(4-thien-2-yl-1,3-thiazol-2-yl)benzohydrazide] | > 200 | 146 | 3.8
26 | O=C(NNc1nc(-c2ccc(Br)cc2)cs1)Nc1ccccc1 [Comp. 30, 2-[4-(4-bromophenyl)-1,3-thiazol-2-yl]-N-phenylhydrazinecarboxamide] | > 200 | 146 | 6.4
27 | O=C(NNc1nc(-c2ccc(F)cc2)cs1)c1ccc(Cl)cc1 [Comp. 31, 4-chloro-N′-[4-(4-fluorophenyl)-1,3-thiazol-2-yl]benzohydrazide] | > 200 | 184 | 56.1
28 | Cc1sc(NNC(=O)c2ccc(F)cc2)nc1-c1ccccc1 [Comp. 32, 4-fluoro-N′-(5-methyl-4-phenyl-1,3-thiazol-2-yl)benzohydrazide] | > 200 | 195 | 18.4
29 | O=C(NNc1nc(-c2cc3ccccc3oc2=O)cs1)c1ccc2c(c1)OCO2 [Comp. 33, N′-[4-(2-oxo-2H-chromen-3-yl)-1,3-thiazol-2-yl]-1,3-benzodioxole-5-carbohydrazide] | > 200 | > 200 | 2.0
30 | O=C(NNc1nc(-c2ccccc2)cs1)c1ccc(F)cc1 [Comp. 34, 4-fluoro-N′-(4-phenyl-1,3-thiazol-2-yl)benzohydrazide] | > 200 | > 200 | 2.6
31 | COc1ccc(-c2csc(NNC(=O)c3ccccc3)n2)cc1 [Comp. 69, N′-[4-(4-methoxyphenyl)-1,3-thiazol-2-yl]benzohydrazide] | 19.4 | 51.3 | –
32 | COc1ccc(-c2csc(NNC(=O)c3ccccc3F)n2)cc1 [Comp. 70, 2-fluoro-N′-[4-(4-methoxyphenyl)-1,3-thiazol-2-yl]benzohydrazide] | 30.5 | 20.4 | –
33 | O=C(NNc1nc(-c2ccc(Cl)cc2)cs1)c1ccccc1 [Comp. 71, N′-[4-(4-chlorophenyl)-1,3-thiazol-2-yl]benzohydrazide] | > 200 | > 200 | –
34 | O=C(NNc1nc(-c2ccc(Cl)cc2)cs1)c1ccccc1F [Comp. 72, N′-[4-(4-chlorophenyl)-1,3-thiazol-2-yl]-2-fluorobenzohydrazide] | > 200 | 101 | –
35 | O=C(NNc1nc(-c2cccc([N+](=O)[O-])c2)cs1)c1ccccc1F [Comp. 73, 2-fluoro-N′-[4-(3-nitrophenyl)-1,3-thiazol-2-yl]benzohydrazide] | 38.5 | 17.5 | –
36 | O=C(NNc1nc(-c2ccc(-c3ccccc3)cc2)cs1)c1ccccc1F [Comp. 74, N′-[4-(1,1′-biphenyl-4-yl)-1,3-thiazol-2-yl]-2-fluorobenzohydrazide] | 53.9 | 20.5 | –
37 | CN(Nc1nc(-c2ccc([N+](=O)[O-])cc2)cs1)C(=O)c1ccc(-c2ccccc2)cc1 [Comp. 76, N-methyl-N′-[4-(4-nitrophenyl)-1,3-thiazol-2-yl]-1,1′-biphenyl-4-carbohydrazide] | 138 | 67.6 | –
38 | CN(C(=O)c1ccc(-c2ccccc2)cc1)N(C)c1nc(-c2ccc([N+](=O)[O-])cc2)cs1 [Comp. 77, N,N′-dimethyl-N′-[4-(4-nitrophenyl)-1,3-thiazol-2-yl]-1,1′-biphenyl-4-carbohydrazide] | 17.7 | 10.9 | –
